Data taken from article PMC4980083 (JCI insight, 2016).

How the values were obtained:
[1] = test system: DU145 cells; experiment: DU145 proliferation/viability; format: cell-based, human; conditions: up to 10 times the IC50 required to reduce AR-dependent proliferation; 3 days
[2] = target: T1, GR (Homo sapiens, UniProt P04150); experiment: GR transcriptional activity, GRE luciferase reporter; format: cell-based; conditions: dexamethasone induced
T1 sequence (P04150 1-777): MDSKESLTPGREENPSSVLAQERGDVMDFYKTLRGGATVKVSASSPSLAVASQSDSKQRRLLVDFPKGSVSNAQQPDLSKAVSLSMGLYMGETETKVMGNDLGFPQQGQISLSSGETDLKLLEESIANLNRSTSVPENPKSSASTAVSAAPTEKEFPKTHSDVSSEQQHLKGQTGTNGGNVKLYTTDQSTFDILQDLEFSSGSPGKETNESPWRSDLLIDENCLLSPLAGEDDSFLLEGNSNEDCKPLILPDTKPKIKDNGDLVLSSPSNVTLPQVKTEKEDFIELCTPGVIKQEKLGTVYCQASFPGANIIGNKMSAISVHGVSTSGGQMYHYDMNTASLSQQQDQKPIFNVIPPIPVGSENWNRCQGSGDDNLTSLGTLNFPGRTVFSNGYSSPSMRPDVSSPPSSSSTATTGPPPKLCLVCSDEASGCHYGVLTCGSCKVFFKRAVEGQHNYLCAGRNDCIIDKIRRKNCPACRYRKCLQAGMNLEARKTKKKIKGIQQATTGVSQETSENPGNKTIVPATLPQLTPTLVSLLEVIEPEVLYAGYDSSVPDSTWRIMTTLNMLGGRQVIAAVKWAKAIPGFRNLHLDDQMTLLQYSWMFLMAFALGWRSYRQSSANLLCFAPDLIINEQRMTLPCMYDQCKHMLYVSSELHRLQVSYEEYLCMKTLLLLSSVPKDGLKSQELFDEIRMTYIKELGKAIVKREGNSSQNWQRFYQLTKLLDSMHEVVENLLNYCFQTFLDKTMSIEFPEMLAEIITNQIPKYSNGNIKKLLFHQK

[3] = target: ERα (Homo sapiens, UniProt P03372); experiment: ER transcriptional activity, ERE luciferase reporter; format: cell-based; conditions: estradiol induced
[4] = target: T2, recombinant AR LBD (Homo sapiens, UniProt P10275); experiment: Fluorescence polarization competition binding, AR LBD; conditions: 1 nM fluorescently labeled ligand, AR LBD 25 nM
T2 sequence (P10275 669-900 limits assumed): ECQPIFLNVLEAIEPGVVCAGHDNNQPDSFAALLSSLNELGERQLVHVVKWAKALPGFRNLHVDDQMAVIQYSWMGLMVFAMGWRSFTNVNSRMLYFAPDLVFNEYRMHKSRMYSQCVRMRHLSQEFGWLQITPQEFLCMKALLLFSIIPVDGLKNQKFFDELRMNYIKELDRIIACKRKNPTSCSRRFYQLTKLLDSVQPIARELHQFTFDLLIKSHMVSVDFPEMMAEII

[5] = test system: full-length AR and V7; experiment: Probasin luciferase activity in LNCaP cells, full-length AR and V7; conditions: I-EPI-002 2 μM, enzalutamide 5 μM; presence or absence of androgen
[6] = target: T3, endogenous full-length AR (Homo sapiens, UniProt P10275, T878A); experiment: AR transcriptional activity, PSA
T3 sequence (P10275 1-920 T878A): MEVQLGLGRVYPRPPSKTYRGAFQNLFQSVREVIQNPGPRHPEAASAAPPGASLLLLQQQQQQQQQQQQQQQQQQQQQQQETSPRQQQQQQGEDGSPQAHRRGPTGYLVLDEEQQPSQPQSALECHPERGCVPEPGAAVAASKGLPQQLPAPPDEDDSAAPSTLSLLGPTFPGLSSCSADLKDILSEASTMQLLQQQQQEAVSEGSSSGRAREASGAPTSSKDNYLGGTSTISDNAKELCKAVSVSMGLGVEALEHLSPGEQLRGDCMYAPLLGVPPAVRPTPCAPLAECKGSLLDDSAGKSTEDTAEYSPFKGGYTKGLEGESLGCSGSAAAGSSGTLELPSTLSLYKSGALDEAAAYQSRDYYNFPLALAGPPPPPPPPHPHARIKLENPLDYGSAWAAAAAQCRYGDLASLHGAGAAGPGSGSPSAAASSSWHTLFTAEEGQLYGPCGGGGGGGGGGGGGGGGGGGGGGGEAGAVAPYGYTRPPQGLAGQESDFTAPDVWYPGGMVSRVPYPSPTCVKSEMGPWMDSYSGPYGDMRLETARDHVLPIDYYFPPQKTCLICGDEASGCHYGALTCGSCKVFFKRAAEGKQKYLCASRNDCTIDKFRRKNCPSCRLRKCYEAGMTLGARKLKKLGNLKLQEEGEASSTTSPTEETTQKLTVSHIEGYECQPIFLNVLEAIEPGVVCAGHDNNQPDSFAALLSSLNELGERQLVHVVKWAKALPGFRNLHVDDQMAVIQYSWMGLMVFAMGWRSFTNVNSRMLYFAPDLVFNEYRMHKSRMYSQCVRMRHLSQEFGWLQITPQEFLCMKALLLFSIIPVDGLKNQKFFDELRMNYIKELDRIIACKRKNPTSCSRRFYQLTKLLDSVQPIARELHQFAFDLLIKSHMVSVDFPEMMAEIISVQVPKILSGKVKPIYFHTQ

ERα, sequence (P03372 whole entry, the tested form may be a part): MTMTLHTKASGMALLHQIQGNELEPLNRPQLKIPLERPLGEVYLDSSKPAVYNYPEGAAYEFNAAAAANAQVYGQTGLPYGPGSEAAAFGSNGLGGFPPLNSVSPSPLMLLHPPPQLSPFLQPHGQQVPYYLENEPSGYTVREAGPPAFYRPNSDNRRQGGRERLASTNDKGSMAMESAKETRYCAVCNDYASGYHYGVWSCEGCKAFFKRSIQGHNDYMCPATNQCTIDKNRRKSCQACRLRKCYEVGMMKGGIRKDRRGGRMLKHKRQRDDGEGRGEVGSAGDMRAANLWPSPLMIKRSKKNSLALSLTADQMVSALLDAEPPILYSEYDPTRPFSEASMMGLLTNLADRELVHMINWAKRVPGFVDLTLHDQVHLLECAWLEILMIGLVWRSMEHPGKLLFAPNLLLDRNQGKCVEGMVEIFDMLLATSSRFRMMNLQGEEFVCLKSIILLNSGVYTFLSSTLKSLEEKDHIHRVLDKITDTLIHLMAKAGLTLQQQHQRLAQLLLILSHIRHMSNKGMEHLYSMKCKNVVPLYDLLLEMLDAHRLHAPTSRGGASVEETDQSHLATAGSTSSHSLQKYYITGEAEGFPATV

15-IodoEPI002 [I-EPI-002]
effect on proliferation or viability of DU145 cells [1]: no effect | inhibition of GR transcriptional activity [2]: did not inhibit | inhibition of ER transcriptional activity [3]: did not inhibit | competition with fluoromone for binding to AR LBD [4]: did not prevent ligand-binding | inhibition of probasin luciferase activity, full-length AR with V7 [5]: showed good inhibition | potency relative to EPI-002 ([6]; cell-based functional assays): 10 times | inhibition of AR transcriptional activity with increasing concentrations of androgen ([6]; increasing R1881, enzalutamide 5 μM, I-EPI-002 5 μM, EPI-002 25 μM): maintained effective inhibition | inhibition of AR transcriptional activity ([6]; ~2 μM, R1881 1 nM): 75%
